Data taken from the supplement of paper PMC10733146.

What was measured:
Experiment in all cases: viability relative to DMSO control (fraction); higher = less drug effect (more viable cells)
Conditions in all cases: 48 h
[1] = tested on: primary ALL patient cells (S048)
How it was run: (§1)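 Compounds were pre-plated at five concentrations, one well each, in 384-well plates, and primary mononuclear tumour cells were plated on them at 4 × 10^4 cells per well. The cells, fresh or cryopreserved, had been Ficoll-isolated from blood or bone marrow or taken from processed lymph node. After 48 h at 37 °C and 5% CO2 in RPMI-1640 with penicillin/streptomycin, L-glutamine and human serum, viability was read as CellTiter-Glo luminescence relative to the median of 16 inner DMSO wells.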

[2] = tested on: primary ALL patient cells (S088)
How it was run: as §1

[3] = tested on: primary AML patient cells (S006)
How it was run: as §1

[4] = tested on: primary AML patient cells (S007)
How it was run: as §1

[5] = tested on: primary AML patient cells (S011)
How it was run: as §1

[6] = tested on: primary AML patient cells (S012)
How it was run: as §1

[7] = tested on: primary AML patient cells (S019)
How it was run: as §1

[8] = tested on: primary AML patient cells (S056)
How it was run: as §1

[9] = tested on: primary AML patient cells (S079)
How it was run: as §1

[10] = tested on: primary AML patient cells (S085)
How it was run: as §1

[11] = tested on: primary CLL patient cells (S031)
How it was run: as §1

[12] = tested on: primary FL patient cells (S022)
How it was run: as §1

[13] = tested on: primary FL patient cells (S087)
How it was run: as §1

[14] = tested on: primary MCL patient cells (S041)
How it was run: as §1

[15] = tested on: primary MCL patient cells (S063)
How it was run: as §1

CC(C)c1cc(C(=O)N2Cc3ccc(CN4CCN(C)CC4)cc3C2)c(O)cc1O [Onalespib]
viability ([1]; 0.0032 µM): 0.877
viability ([1]; 0.016 µM): 0.847
viability ([1]; 0.08 µM): 0.477
viability ([1]; 0.4 µM): 0.574
viability ([1]; 2 µM): 0.432
viability ([2]; 0.0032 µM): 0.659
viability ([2]; 0.016 µM): 0.582
viability ([2]; 0.08 µM): 0.255
viability ([2]; 0.4 µM): 0.273
viability ([2]; 2 µM): 0.253
viability ([3]; 0.0032 µM): 0.788
viability ([3]; 0.016 µM): 0.312
viability ([3]; 0.08 µM): 0.124
viability ([3]; 0.4 µM): 0.213
viability ([3]; 2 µM): 0.239
viability ([4]; 0.0032 µM): 0.566
viability ([4]; 0.016 µM): 0.114
viability ([4]; 0.08 µM): 0.0773
viability ([4]; 0.4 µM): 0.102
viability ([4]; 2 µM): 0.111
viability ([5]; 0.0032 µM): 0.712
viability ([5]; 0.016 µM): 0.916
viability ([5]; 0.08 µM): 0.399
viability ([5]; 0.4 µM): 0.684
viability ([5]; 2 µM): 0.66
viability ([6]; 0.0032 µM): 0.973
viability ([6]; 0.016 µM): 1.02
viability ([6]; 0.08 µM): 0.657
viability ([6]; 0.4 µM): 0.139
viability ([6]; 2 µM): 0.15
viability ([7]; 0.0032 µM): 0.594
viability ([7]; 0.016 µM): 1.1
viability ([7]; 0.08 µM): 0.265
viability ([7]; 0.4 µM): 0.57
viability ([7]; 2 µM): 0.371
viability ([8]; 0.0032 µM): 0.743
viability ([8]; 0.016 µM): 0.29
viability ([8]; 0.08 µM): 0.142
viability ([8]; 0.4 µM): 0.164
viability ([8]; 2 µM): 0.174
viability ([9]; 0.0032 µM): 0.872
viability ([9]; 0.016 µM): 0.888
viability ([9]; 0.08 µM): 0.555
viability ([9]; 0.4 µM): 0.381
viability ([9]; 2 µM): 0.322
viability ([10]; 0.0032 µM): 0.928
viability ([10]; 0.016 µM): 0.942
viability ([10]; 0.08 µM): 0.334
viability ([10]; 0.4 µM): 0.233
viability ([10]; 2 µM): 0.237
viability ([11]; 0.0032 µM): 0.896
viability ([11]; 0.016 µM): 0.929
viability ([11]; 0.08 µM): 0.432
viability ([11]; 0.4 µM): 0.235
viability ([11]; 2 µM): 0.246
viability ([12]; 0.0032 µM): 0.868
viability ([12]; 0.016 µM): 0.943
viability ([12]; 0.08 µM): 0.705
viability ([12]; 0.4 µM): 0.781
viability ([12]; 2 µM): 0.757
viability ([13]; 0.0032 µM): 0.962
viability ([13]; 0.016 µM): 1.02
viability ([13]; 0.08 µM): 0.853
viability ([13]; 0.4 µM): 0.84
viability ([13]; 2 µM): 0.871
viability ([14]; 0.0032 µM): 0.95
viability ([14]; 0.016 µM): 1.05
viability ([14]; 0.08 µM): 0.724
viability ([14]; 0.4 µM): 0.53
viability ([14]; 2 µM): 0.445
viability ([15]; 0.0032 µM): 0.9
viability ([15]; 0.016 µM): 1.27
viability ([15]; 0.08 µM): 0.447
viability ([15]; 0.4 µM): 0.1
viability ([15]; 2 µM): 0.0867
